The text below walks through data of US20260297164A1, “ANTI-FIBROTIC PEPTIDES AND USES THEREOF” (Deackt, Inc., priority 2021, published 2026).

This assay relates to mouse lung fibroblasts. Description: FasL-induced cell death of TGF-β1-stimulated mouse lung fibroblasts. The class given is cell-based. Particulars: wild-type cells, TGF-β1 stimulation; FasL 200 ng/ml. The text has this: FIG. 2. CD148 deficiency in fibroblasts worsens pulmonary fibrosis in bleomycin-treated mice and increases fibroblast activation in response to TGF-β1. CD148 fibroblast-specific knockout mice (Ptprj^fl/fl Col1a2^Cre-ER(T)+/0 were developed as described in Methods. (A) Ptprj^fl/fl Col1a2^Cre-ER(T)+/0 mice or Col1a2^Cre-ER(T)+/0 (wild type) mice were exposed to BLM to induce lung fibrosis. At day 21, mouse lungs were harvested and stained with Masson's trichrome (n=3 for saline and n=5 for BLM groups). (B) Hydroxyproline content was measured in the left lung of Ptprj^fl/fl Col1a2^Cre-ER(T)+/0 mice (n=12) and Col1a2^Cre-ER(T)+/0 (WT) mice (n=12) exposed to BLM, and Ptprj^fl/fl Col1a2^Cre-ER(T)+/0 (n=6) and Col1a2^Cre-ER(T)+/0 (n=6) exposed to saline; at day 21. (C) Relative survival at day 0-21 after BLM. (D-E), α-SMA and CD148 expression in harvested lungs were measured by western blot (n=3-5 for each condition). (F-G) Gene expression of Fn and Col1a1, and Ctgf in harvested lungs was measured using qPCR (n=5 for each condition). […] (I) mRNA levels of Col1a1 and Fn were measured by qPCR (n=5 for each condition). […] Gel contractility was measured at 0, 12 and 24 h after TGF-β1 (10 ng/ml) stimulation (n=6 for each condition). […] At 24 h, cell viability was measured with MTT assay (n=5 for each condition). […]

Regarding TGF-β1, the “FasL-induced cell death and apoptosis” value is on record as “induced resistance”.
